Values after ≈ are worked out from the molar mass of the structure shown. Where two headings read alike, the source gives them in different places. *1 amine or outer side, *2 acyl side, *3 side chain or, on linkers, in order; H or OH if unused. Where a SMILES comes first, the peptide text is derived from it. [ ]: non-standard residue; d: D form. The star is where a group is joined. boroAla((+)-pinanediol) = C[C@H](N*)B1O[C@@H]2C[C@@H]3C[C@@H](C3(C)C)[C@]2(C)O1; Biphenylcarbonyl(4'-Bu) = CCCCc1ccc(-c2ccc(C(=O)*)cc2)cc1; X5 = C[C@H](N*)B1OC2C[C@@H]3C[C@@H](C3(C)C)[C@]2(C)O1; Benzoyl(4-(4-Cl-Ph)) = O=C(c1ccc(-c2ccc(Cl)cc2)cc1)*; X14 = O=C(c1ccc(Oc2ccc(Cl)cc2)cc1)*; X1 = C[C@H](N[*:1])C(=O)C(=O)[*:2]; X12 = C[C@H](N*)C(=O)c1nc2ccccc2o1; NHPhenethyl = c1ccc(CCN*)cc1; X9 = CC1(c2ccccc2)CCN(*)CC1; Decanoyl = CCCCCCCCCC(=O)*; X4 = c1ccc(C2CCN(*)CC2)cc1; Dab = NCC[C@H](N)C(=O)O; Dap = NC[C@H](N)C(=O)O; CO = O=C([*:1])[*:2]
Experiments:
E. coli SPase = molecular target: T1, E. coli SPase (Escherichia coli, UniProt P00803); assay: Biochemical SPase activity assay, fluorogenic peptide substrate, E. coli enzyme; conditions: 20 μM substrate, 10 minutes preincubation, read-out: IC 50 (nM) E. coli
T1 construct: Full length His-tagged E. coli SPase proteins; His; made in house; host or cells: E. coli BL21(DE3)
T1 sequence (P00803 whole entry): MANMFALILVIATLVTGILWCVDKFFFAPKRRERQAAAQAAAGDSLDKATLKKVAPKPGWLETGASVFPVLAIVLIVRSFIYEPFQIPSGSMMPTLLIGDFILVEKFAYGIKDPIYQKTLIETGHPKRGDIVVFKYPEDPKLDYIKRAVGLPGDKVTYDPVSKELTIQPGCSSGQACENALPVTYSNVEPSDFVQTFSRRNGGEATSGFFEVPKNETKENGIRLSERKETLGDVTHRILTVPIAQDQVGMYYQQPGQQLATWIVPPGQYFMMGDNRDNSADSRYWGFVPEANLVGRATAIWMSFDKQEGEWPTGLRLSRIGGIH
Protocol: Full length His-tagged E. coli SPase proteins were expressed in E. coli BL21(DE3) containing the plasmid pET23-lepB. Briefly, saturated overnight cultures grown in 20 ml of Luria-Bertani medium supplemented with ampicillin were subcultures into 1.5 L of Luria-Bertani, and shaken at 37° C. until an optical density at 600 nm of 0.4-0.5 was achieved.
(§1) Signal peptidase enzyme activity of the above proteins was measured using two fluorogenic peptide substrates (decanoyl-LSSPAYNO2A ? ADKabzPD and decanoyl-LTPTAYNO2A ? ASKKabzDD), where abz is the fluorescence donor 2-aminobenzamide, YNO2 is the fluorescence acceptor 3-nitrotyrosine, and the cleavage site is indicated with an arrow. Enzyme mix solution was prepared by diluting 2.5 nM of Escherichia coli or Staphylococcus aureus SPase protein into reaction buffers consisting of 20 mM PO4 pH 7.4, 100 mM NaCl, and 1% Elugent™ or octyl phenoxypolyethoxylethanol detergent at a concentration of 0.25% or 0.0625%. Reactions were initiated by the addition of substrate to a final concentration of 20 μM. Reaction progress was monitored by measuring the increase in fluorescence signal (excitation at 314 nm, emission at 416 nm) using a SpectraMax M2 fluorescence microplate reader. To determine IC50 values of test compounds, compound stock solutions were prepared in DMSO at a concentration of 1 mM. Three-folder serial dilutions of test compounds, starting at 10 μM, were prepared in enzyme mix solution and incubated at room temperature for 10 minutes. Following this incubation, fluorogenic substrate was added to a final concentration of 20 μM and the increase in fluorescence, corresponding to substrate cleavage, was monitored continuously at room temperature for 1 hour. Initial reaction rates were calculated based on the rate of increase in fluorescence during the reaction. Reaction rates were plotted as a function of compound concentration, and IC50 values are determined nonlinear regression analysis (SoftMaxPro 5.4, Molecular Devices™) of the sigmoidal dose-response curve.

S. aureus SPase = S. aureus SPase (Staphylococcus aureus, UniProt P0A070); assay: biochemical; conditions: IC 50 (nM) S. aureus, 20 μM substrate, 10 minutes preincubation
Chain of S. aureus SPase (P0A070 whole entry): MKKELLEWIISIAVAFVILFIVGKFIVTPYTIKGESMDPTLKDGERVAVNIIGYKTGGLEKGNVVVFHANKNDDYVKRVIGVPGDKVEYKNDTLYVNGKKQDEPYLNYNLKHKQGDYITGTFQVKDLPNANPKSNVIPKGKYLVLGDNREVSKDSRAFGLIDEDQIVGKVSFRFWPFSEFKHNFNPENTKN
Protocol: Full length His-tagged S. aureus SPase protein was expressed similarly from E. coli BL21(DE3) containing the plasmid pCDF1-SaSpsB and purified similarly to the E. coli protein with the following exceptions. SPase protein was solubilized using 300 mM NaCl, 20 mM Tris pH 8.06, 5 mM Imidazole, 10% glycerol, 1% Triton X-100, prior to purification in Ni-NTA Superflow resin and resin bound protein was washed in a similar buffer containing 1% Elugent in place of Triton X-100 prior to protein eluted in wash buffer supplemented with 300 mM imidazole. […] All protein concentrations were determined by BCA assay.
as §1

[1] = test system: methicillin resistant Staphylococcus aureus (MRSA) strain USA300 (NRS384); conditions: MRSA USA300 (NRS384), 35° C., 22 hours
Procedure, shortened: (§2)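 CLSI broth microdilution in cation-adjusted Mueller Hinton Broth with 0.002% Tween-80, two-fold dilutions starting at 64 μg/ml.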

[2] = test system: Escherichia coli strain MC4100 IMP-4213, which harbors an LptD mutation; conditions: E. coli MC4100 IMP-4213, 35° C., 22 hours
Procedure, shortened: as §2

SMILES | IC50 (E. coli SPase) | IC50 (S. aureus SPase) | MIC (μg/mL) S. aureus ([1]; listed as 203 P2) | MIC (μg/mL) E. coli ([2]; listed as 203 P2) | MIC (μg/mL) S. aureus [1] | MIC (μg/mL) E. coli [2] | MIC (μg/mL) S. aureus ([1]; listed as 205 P2) | MIC (μg/mL) E. coli ([2]; listed as 205 P2)
CCCCc1ccc(-c2ccc(C(=O)N[C@@H](CCN)C(=O)N[C@H](C(=O)N[C@@H](C)C(=O)N[C@@H](CCCCN)C(=O)N[C@@H](C)C(=O)C3OC3C)[C@@H](C)O)cc2)cc1 (single isomer, unassigned) [Compound 203 P2] | 1500 nM | 1000 nM | 8 µg/mL (≈ 10.4 µM) | 23 µg/mL (≈ 30 µM) |  |  |  | 
C[C@H](NC(=O)[C@H](CCCCN)NC(=O)[C@H](C)NC(=O)[C@@H](NC(=O)[C@H](CCCCN)NC(=O)N1CCC(c2ccccc2)CC1)[C@@H](C)O)B1O[C@@H]2C[C@@H]3C[C@@H](C3(C)C)[C@]2(C)O1 [Compound 126] ({X4-CO}-KTAK-{boroAla((+)-pinanediol)}) | 230 nM | 250 nM |  |  | 64 µg/mL (≈ 76.3 µM) | >64 µg/mL |  | 
C[C@H](NC(=O)[C@@H](NC(=O)[C@H](CN)NC(=O)c1ccc(-c2ccc(Cl)cc2)cc1)[C@@H](C)O)C(=O)N[C@@H](CCCCN)C(=O)N[C@@H](C)C(=O)C(=O)NCCc1ccccc1 [Compound 110] ({Benzoyl(4-(4-Cl-Ph))}-[Dap]TAK[X1]-NHPhenethyl) | 6000 nM | 3800 nM |  |  | 32 µg/mL (≈ 39 µM) | 64 µg/mL (≈ 77.9 µM) |  | 
CCCCCCCCCC(=O)N[C@@H](CCN)C(=O)N[C@H](C(=O)N[C@@H](C)C(=O)N[C@@H](CCCCN)C(=O)N[C@@H](C)B1O[C@@H]2C[C@@H]3C[C@@H](C3(C)C)[C@]2(C)O1)[C@@H](C)O [Compound 117] (Decanoyl-[Dab]TAK-{boroAla((+)-pinanediol)}) | 20 nM | 150 nM |  |  | 2 µg/mL (≈ 2.57 µM) | 8 µg/mL (≈ 10.3 µM) |  | 
CCCCc1ccc(-c2ccc(C(=O)N[C@@H](CCN)C(=O)N[C@@H](CCC(N)=O)C(=O)N[C@@H](C)C(=O)N[C@@H](CCCCN)C(=O)N[C@@H](C)B3OC4C[C@@H]5C[C@@H](C5(C)C)[C@]4(C)O3)cc2)cc1 (stereo partly drawn) [Compound 122] ({Biphenylcarbonyl(4'-Bu)}-[Dab]QAK-X5) | 20 nM | 240 nM |  |  | 0.4 µg/mL (≈ 0.451 µM) | 0.2 µg/mL (≈ 0.225 µM) |  | 
CCCCc1ccc(-c2ccc(C(=O)N[C@@H](CCN)C(=O)N[C@H](C(=O)N[C@@H](C)C(=O)N[C@@H](CCCCN)C(=O)N[C@@H](C)C(=O)C3OC3C)[C@@H](C)O)cc2)cc1 (single isomer, unassigned) [Compound 205 P2] | > 10000 nM | > 10000 nM |  |  |  |  | >64 µg/mL | 32 µg/mL (≈ 41.8 µM)
C[C@H](NC(=O)[C@H](CCCCN)NC(=O)[C@H](C)NC(=O)[C@@H](NC(=O)[C@H](CN)NC(=O)c1ccc(Oc2ccc(Cl)cc2)cc1)[C@@H](C)O)B1O[C@@H]2C[C@@H]3C[C@@H](C3(C)C)[C@]2(C)O1 [Compound 129] (X14-[Dap]TAK-{boroAla((+)-pinanediol)}) | 3.6 nM | 120 nM |  |  | 2.8 µg/mL (≈ 3.33 µM) | 4 µg/mL (≈ 4.76 µM) |  | 
C[C@H](NC(=O)[C@H](CCCCN)NC(=O)[C@H](C)NC(=O)[C@@H](NC(=O)[C@H](CCCCN)NC(=O)N1CCC(C)(c2ccccc2)CC1)[C@@H](C)O)B1O[C@@H]2C[C@@H]3C[C@@H](C3(C)C)[C@]2(C)O1 [Compound 130] ({X9-CO}-KTAK-{boroAla((+)-pinanediol)}) | 270 nM | 280 nM |  |  | 64 µg/mL (≈ 75 µM) | >64 µg/mL |  | 
C[C@H](NC(=O)[C@@H](NC(=O)[C@H](CN)NC(=O)c1ccc(-c2ccc(Cl)cc2)cc1)[C@@H](C)O)C(=O)N[C@@H](CCCCN)C(=O)N[C@@H](C)C(=O)c1nc2ccccc2o1 [Compound 214] ({Benzoyl(4-(4-Cl-Ph))}-[Dap]TAK-X12) | 180 nM | 630 nM |  |  | 64 µg/mL (≈ 80.9 µM) | 32 µg/mL (≈ 40.4 µM) |  | 
